Consider seven molecules from publication PMC9772450, “Gel-forming antagonist provides a lasting effect on CGRP-induced vasodilation” (Frontiers in Pharmacology, 2022).

Read-outs that look alike come from different tables or passages of the source.

A short description of data set [1]: Release of ADE651 from gel solution in vivo (single-dose pharmacokinetics). Further details: species or system Sprague-Dawley rats. The settings on record: rat. On the procedure: Single-dose pharmacokinetics of gel solution was investigated in male Sprague-Dawley rats. Rats received a peptide solution via the subcutaneous route. Blood samples were collected at pre-dose, 8 h, 1, 2, 4, and 8 days via a catheter that has been cannulated to the jugular vein (Charles River), and 0.5–1.0 ml of blood samples were collected at each time point. The animals were individually housed, plasma was obtained by centrifugation, and the peptide level in samples was determined by specific ADM2 EIAs (Catalogue no. EK-010–48, Phoenix Pharmaceuticals Inc.). It has a 0% cross-reactivity to ADM or CGRPs and has a sensitivity of 0.19 ng/ml. The Inter-assay variation was <15%.

The nature of data set [2]: Passage of peptide molecules through Centricon filters. In kind it is physicochemical. Particulars: Centricon 30,000 MW cutoff. From the text:
To evaluate whether gel-formation reduces the movement of peptide molecules in solution, we used the Centricon® filters (Millipore) to separate samples and the carriers based on their molecular mass. The sample is monomeric peptides, and the carrier is the self-assembled gel. One milligram aliquots of the peptides were first dissolved as 0.1% solution in 5% glucose, 0.1% solution in saline, 5% solution in 5% glucose, 10% solution in 5% glucose, and 20% solution in 5% glucose. Ten minutes later, the 5%, 10%, and 20% solutions were diluted to the 0.1% level. Aliquots of these solutions were sampled and dispensed into separate Centricon columns (30,000 MW cutoff), and the monomeric peptide and gel molecules were separated by centrifugation for 15 min (2000 x g). The level of peptide in the elutes was determined by specific EIAs (Phoenix Pharmaceuticals Inc.).

The subject of data set [3] is CGRP-induced vasodilation. Briefly: Dermal blood flow and vasodilation in rat hindlimbs, laser Doppler imaging. Particulars: rat hindlimb. The format is in vivo, Sprague-Dawley rats. As to the method: Adult Sprague Dawley male rats (body weight 150–200 g) were randomly divided into treatment groups. Animals were individually housed during the experiment. After acclimation, rats were anesthetized and stabilized under 2.5% isoflurane, and were placed on a heating pad. Testing articles were prepared just before the experiment and individually administered subcutaneously into the hindlimbs. Human β-CGRP (LifeTein LLC, Hillsborough, NJ) was dissolved in a saline solution, and the antagonist solution was prepared in a 5% glucose solution. […] In this experiment, the antagonist gel solution was administered at 0 h as a liquid solution shortly after dissolution to prevent issues associated with the formation of semi-solid gel when the peptide is dissolved at high levels. […] The amount of blood flow was determined by laser Doppler imaging as described earlier ([Van der Schueren et al., 2007]; [Benschop et al., 2014]). The laser Doppler scan series of the hindlimbs began with two baseline scans and was followed by two scans each at select time points. Data are reported as percent change from the average baseline scans.

A short description of data set [4]: Viscosity of peptide solutions, Rheosense viscometer. In kind it is physicochemical. The settings on record: N = 5 per group, result in words. On the procedure:
(§1) To evaluate the ability of peptides to form gels in situ, we initially determined this tendency qualitatively based on visual examinations of peptide solutions using a tube-tapping method. In addition, we quantitatively determined the viscosity of select peptide solutions using a viscometer (Rheosense Inc; http://www.rheosense.com/products/viscometers) ([Yan and Pochan, 2010]). In the visual assay, aliquots of peptides were dissolved in an aqueous solution (i.e., de-ionized water, saline, or 5% glucose solution). The peptide that dissolved instantly and stayed as a clear solution without obvious macroscopic change in viscosity at 20 min after mixing was considered soluble. If macroscopic particles of peptides remained in the solution at 20 min after mixing, the peptide was considered insoluble.
In addition, we quantitatively determined the viscosity of ADE651 and control peptides using the Rheosense viscometer. The peptide solution was loaded onto a Rheosense viscometer chip, and the sample was injected at a constant flow rate through the flow channel with multiple pressure sensors that monitor the pressure drop from the inlet to the outlet. Because the pressure drop is correlated with the shear stress at the boundary wall, the instrument determines the rheological properties based on the standard principles of rheometry ([Yan and Pochan, 2010]).

Data set [5] in a line: Visual (tube-tapping) assay of gel-forming capability and solubility. Set-up: key to Gel-forming ability: Y: can form a liquid gel; N: lacks the ability to efficiently form a liquid gel. The format is physicochemical. As to the method:
as §1

Data set [6] addresses T1, CLR/RAMP1 receptor (Homo sapiens, UniProt O60894+Q16602).
T1 construct: host or cells: CHO-K1 (cAMP Hunter cell line)
Briefly: HitHunter cAMP XS+ CALCRL-RAMP1 cAMP assay, antagonist mode. The format is cell-based. Particulars: agonist, cAMP Hunter CLR/RAMP1 cells. As to the method: The assay of the antagonistic activity of analogs was conducted by the Eurofins Discoverx using the HitHunter cAMP XS + assay as described earlier ([Bradley and McLoughlin, 2009]; [Chang and Hsu, 2019]). The dose-dependent inhibitory effect of antagonists was studied in duplicate, at 10 different concentrations. Determination of the half-maximal inhibitory concentration (IC50) was performed using a 10-point dose-response curve. The starting concentration was 10 μM, and it was serially diluted 3-fold, in DMSO. […] Using the Hit Hunter® assay (CALCRL-RAMP1 cAMP assay in the antagonist mode; https://www.discoverx.com/products/cell-line/cho-k1-calcrl-ramp1-gs-cell-line-95-0164c2), the eight compounds in Table 1 were assayed side-by-side once, and the IC50 was derived based on the standard assay of duplicate samples of a ten-point curve. In this homogenous, non-imaging assay, the activation of CLR/RAMP1 signaling was evaluated using the Enzyme Fragment Complementation (EFC) technology with β-galactosidase (β-Gal) as the functional reporter. The enzyme was split into two complementary portions: an enzyme acceptor and an enzyme donor. The enzyme donor is fused to cAMP and it competes with cAMP generated by cells
For binding to a cAMP-specific antibody. Active β-Gal is formed by complementation of exogenous enzyme acceptor to any unbound enzyme donor-cAMP. The active enzyme then converted a chemiluminescent substrate to generate a signal. Briefly, cAMP Hunter cell lines with the select receptor were expanded from freezer stocks ([Bradley and McLoughlin, 2009]), and cells were seeded in a total volume of 20 μL into 384-well microplates and incubated at 37°C for the appropriate time. […] Intermediate dilution of samples was performed to generate 4X sample in the assay buffer. Before the assay, media was aspirated from cells and replaced with 10 μL 1:1 HBSS/Hepes:cAMP XS + Ab reagent, and 5 μL of 4X compound was added to the cells and incubated for 30 min. […] Vehicle concentration was 1%.
The chemiluminescent signal was read with a PerkinElmer chemiluminescent plate reader. The compound activity was analyzed using a CBIS data analysis suite (ChemInnovation, CA). The percentage inhibition was calculated using the following formula: % Inhibition = 100% x (1 - (mean RLU of test sample - mean RLU of vehicle control)/(mean RLU of EC80 control - mean RLU of vehicle control)). Data were normalized to the maximal and minimal response observed in the presence of EC80 agonist and vehicle.

The subject of data set [7] is capsaicin-induced dermal blood flow. The settings on record: ref Sinclair et al., 2010; cited from earlier work. An excerpt:
It is known that anti-CGRP gepants could occupy a binding site close to the interface of the N-terminal domains of CLR and RAMP1, and act by allosteric regulation ([Miller et al., 2010]). Although the gepants compounds have low IC50 values in receptor activation assays in vitro, it is well documented that gepants need high concentrations to bloc ...

Data set [8] deals with migraine. Particulars: cited from earlier work. An excerpt: Migraine is a common complex neurovascular disorder that is manifested as episodic and predominantly unilateral throbbing headache with hypersensitivity to light, sound, and movement ([Erdener and Dalkara, 2014]; [Schuster and Rapoport, 2016]). According to the World Health Organization, 324 million people worldwide suffer from incapacitating migraine in 2008. In ∼ one-third of patients, migraine headaches are accompanied by an aura involving neurological symptoms such as transient visual, sensory, or motor disturbances ([Goadsby et al., 2002]). In the US, it was reported that 15% of Americans ...

The conditions of data set [9]: cited from earlier work.

T1 sequence (Q16602 23-461): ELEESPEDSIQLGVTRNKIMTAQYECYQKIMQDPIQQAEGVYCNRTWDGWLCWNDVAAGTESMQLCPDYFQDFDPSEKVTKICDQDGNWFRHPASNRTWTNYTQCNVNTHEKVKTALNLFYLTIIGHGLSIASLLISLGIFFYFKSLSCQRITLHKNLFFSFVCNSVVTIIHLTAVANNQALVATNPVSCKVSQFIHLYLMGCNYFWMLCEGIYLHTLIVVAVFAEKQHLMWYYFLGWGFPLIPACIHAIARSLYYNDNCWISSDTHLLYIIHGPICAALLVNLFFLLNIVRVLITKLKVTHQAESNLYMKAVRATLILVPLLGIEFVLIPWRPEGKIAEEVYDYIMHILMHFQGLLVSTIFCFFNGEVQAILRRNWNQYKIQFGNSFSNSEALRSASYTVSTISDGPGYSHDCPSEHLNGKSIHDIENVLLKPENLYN
T1 sequence (O60894 27-148): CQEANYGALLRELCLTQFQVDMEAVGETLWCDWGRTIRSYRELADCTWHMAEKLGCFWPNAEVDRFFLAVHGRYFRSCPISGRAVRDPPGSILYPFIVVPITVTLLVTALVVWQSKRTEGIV

Turning to `CCCCCCCCCCCCCCCC(=O)N[C@@H](CCCCN)C(=O)N[C@H](C(=O)N[C@@H](CCC(N)=O)C(=O)N[C@@H](CCCCN)C(=O)N[C@@H](CC(C)C)C(=O)N[C@@H](CO)C(=O)N[C@@H](C)C(=O)N1CCC[C@H]1C(=O)N[C@H](C(=O)N[C@@H](CC(=O)O)C(=O)N1CCC[C@H]1C(=O)N[C@@H](CO)C(=O)N[C@@H](CO)C(=O)N1CCC[C@H]1C(=O)N[C@@H](Cc1c[nH]cn1)C(=O)N[C@@H](CO)C(=O)N[C@@H](Cc1ccc(O)cc1)C(N)=O)C(C)C)C(C)C` [ADE651], the Tmax in data set [1] (male, Sprague-Dawley, sc, subcutaneous, 200 µL of 16% solution (32 mg), plasma, ADM2 EIA, three animals, read-out: Time of peak circulating level after administration) came to 8 h. The “Sustained presence in the circulation after subcutaneous injection” value in data set [1] (subcutaneous gel solution) is recorded as over 1 week. Moreover, the “Circulating level at 8 days after injection” value in data set [1] (subcutaneous, 16% solution (32 mg), plasma, ADM2 EIA, versus 0 h, result in words) is reported as “significantly elevated”. The “Reduction of peptide level in the elutes from 5%, 10% and 20% solution groups compared to the 0.1% solution group” value in [2] (2000 x g 15 min, dissolved in 5% glucose, diluted to 0.1% after 10 min, ADM2 EIA, triplicate samples) is recorded as “more than 98%”. In data set [2] (ADM2 EIA, N = 3 per group, result in words), the “Peptide level in the elute from the 0.1% saline group versus 0.1% solution in 5% glucose group” value was “significantly lower”. Also, the “CGRP-induced increase in blood flow at the 5 h time point after ADE651 pretreatment” value in data set [3] (ADE651 8 mg in 8% solution s.c. at 0 h, CGRP 1 mg/100 µL at 4 h, N = 3) turned out to be 6%. In addition, the “Blood flow before the CGRP treatment (4 h time point) versus control animals” value in data set [3] (ADE651 8 mg in 8% solution s.c. at 0 h, result in words) was “significantly lower”. Also, the “Viscosity of 0.5% solution in 5% glucose” value in [4] (compared with water, saline, 5% glucose, 0.5% and […] ADM) is “significantly higher than that of all other solutions evaluated”. In data set [5] (visual), the “Appearance of solution in saline at 6–20%” value is recorded as “cloudy”, the “Solubility in 5% glucose solution” value is “soluble from 0.1% to 20%” and the Solubility in saline result is “low solubility”. In addition, the Gel-forming ability result in [5] (visual inspection of 11% peptide solutions, tube-tapping, 20 min after mixing) is given as “Y”. Further, the “Concentration at which the peptide solution forms a gel (becomes viscous)” value in data set [5] (visual, 20 min after dissolution, vial tilted 90° and tapped) is listed as 6–20%.

Take `CSCC[C@H](NC(=O)CNC(=O)CNC(=O)[C@H](CO)NC(=O)[C@H](CCCNC(=N)N)NC(=O)[C@H](CO)NC(=O)[C@H](CC(C)C)NC(=O)[C@H](CC(C)C)NC(=O)CNC(=O)[C@H](C)NC(=O)[C@H](CC(C)C)NC(=O)[C@H](CCCNC(=N)N)NC(=O)[C@H](Cc1c[nH]cn1)NC(=O)[C@@H](NC(=O)[C@@H](NC(=O)[C@@H]1CSSC[C@H](NC(=O)[C@H](C)N)C(=O)N[C@@H](CC(N)=O)C(=O)N[C@@H]([C@@H](C)O)C(=O)N[C@@H](C)C(=O)N[C@@H]([C@@H](C)O)C(=O)N1)C(C)C)[C@@H](C)O)C(=O)N[C@H](C(=O)N[C@@H](CCCCN)C(=O)N[C@@H](CO)C(=O)N[C@@H](CC(N)=O)C(=O)N[C@@H](Cc1ccccc1)C(=O)N[C@H](C(=O)N1CCC[C@H]1C(=O)N[C@H](C(=O)N[C@@H](CC(N)=O)C(=O)N[C@H](C(=O)NCC(=O)N[C@@H](CO)C(=O)N[C@@H](CCCCN)C(=O)N[C@@H](C)C(=O)N[C@@H](Cc1ccccc1)C(N)=O)C(C)C)[C@@H](C)O)C(C)C)C(C)C` [CGRP, calcitonin gene-related peptide]: the “EC80 of agonist in the cAMP assay” value in data set [6] was 0.37 nM. Moreover, in data set [2] (15 min centrifugation, specific EIA, N = 3 per group, result in words), the “Peptide level in elutes from 0.1, 5, 10 and 20% solution groups” value is on record as “similar”. In addition, the “Increase in blood flow at the 5 h time point in control animals” value in data set [3] (saline at 0 h, CGRP 1 mg/100 µL s.c. at 4 h, N = 3) is listed as over 25%. In addition, in [5] (visual), the “Solubility in 5% glucose solution” value is “soluble from 0.1% to 20%”.

In the case of `O=C(N[C@@H]1CC[C@@H](c2cccc(F)c2F)CN(CC(F)(F)F)C1=O)N1CCC(n2c(=O)[nH]c3ncccc32)CC1` [telcagepant, reference compound], the “EC (90) to inhibit the capsaicin-induced increase in dermal blood flow” value in data set [7] is reported as about 909 nM.

Regarding `CC1(C)O[C@@H]2[C@@H](CO[C@@]3(COS(N)(=O)=O)OC(C)(C)O[C@@H]23)O1` [topiramate], the “Reduction of migraine days” value in data set [8] (ref Overeem et al., 2021) is reported as 1.11 migraine days.

Consider `C[C@@H]1[C@H](c2ccccc2)C[C@H](NC(=O)c2cnc3c(c2)C[C@@]2(C3)C(=O)Nc3ncccc32)C(=O)N1CC(F)(F)F` [ubrogepant], for which the “Pain freedom at 2 h, share of acute migraine patients” value in data set [8] (14.3% in the placebo group, ref Lipton et al., 2019, Switzer et al., 2022) is on record as 21.8%. The “Absolute difference in the pain-free rate versus placebo” value in data set [8] (ref Lipton et al., 2019, Switzer et al., 2022) is listed as 6.4–7.5%.

As for adrenomedullin 2 [ADM2], the “Resident time after subcutaneous injection” value in [9] (in vivo, sc) is under 1 h.

With “adrenomedullin [ADM, reference compound]”, in data set [9] (short half-life, ref Nagata et al., 2022), the “Resident time after subcutaneous injection” value was under 1 h. The “Viscosity of 0.5% and […] solutions in 5% glucose” value in [4] is on record as “like that of 5% glucose solution”.
